Data on 18 molecules can be found in US7534894B2, “Biphenyloxy-acids” (Wyeth, priority 2003, dated 2009).

For orientation: inhibition means the relative decrease from the control value, in per cent. A word on the melting point: it is the temperature, or range, at which the solid turns liquid. What is called IC50 is the concentration that inhibits the measured activity by half.

The target of data set [1] is T1, recombinant human plasminogen activator inhibitor-1 (PAI-1) (Homo sapiens, UniProt P05121).
T1 construct: purchased Molecular Innovations, Royal Oak, Mich
Nature of the data set: Primary Screen for the PAI-1 Inhibition (residual tPA activity, chromogenic substrate Spectrozyme-tPA). Type of data set: biochemical. Conditions: 140 nM PAI-1, 70 nM tPA, pH 6.6; for inhibition at 25 µM: 25 μM test compound; for inhibition at 100 µM: 100 μM test compound. As to the method:
(§1) Test compounds are dissolved in DMSO at a final concentration of 10 mM, then diluted 101× in physiologic buffer. The inhibitory assay is initiated by the addition of the test compound (1-100 μM final concentration, maximum DMSO concentration of 0.2%) in a pH 6.6 buffer containing 140 nM recombinant human plasminogen activator inhibitor-1 (PAI-1; Molecular Innovations, Royal Oak, Mich.). Following a 1 hour incubation at room temperature, 70 nM of recombinant human tissue plasminogen activator (tPA) is added, and the combination of the test compound, PAI-1 and tPA is incubated for an additional 30 minutes. Following the second incubation, Spectrozyme-tPA (American Diagnostica, Greenwich, Conn.), a chromogenic substrate for tPA, is added and absorbance read at 405 nm at 0 and 60 minutes. Relative PAI-1 inhibition is equal to the residual tPA activity in the presence of the test compound and PAI-1. Control treatments include the complete inhibition of tPA by PAI-1 at the molar ratio employed (2:1), and the absence of any effect of the test compound on tPA alone.

A further data set has as its target human PAI-1 (Homo sapiens, UniProt P05121). Nature of the data set: Antibody Assay for Determining IC50 of Inhibition of PAI-1 (active PAI-1 bound to tPA-coated plate, 33B8 antibody). To be noted: test compound incubated with human PAI-1 50 ng/ml, pH 7.5. Type of data set: binding. The procedure: This assay is based upon the non-SDS dissociable interaction between tPA and active PAI-1. Assay plates are initially coated with human tPA (10 μg/ml). Test compounds of the present invention are dissolved in DMSO at 10 mM, then diluted with physiologic buffer (pH 7.5) to a final concentration of 1-50 μM. Test compounds are incubated with human PAI-1 (50 ng/ml) for 15 minutes at room temperature. The tPA-coated plate is washed with a solution of 0.05% Tween 20 and 0. 1% BSA, then the plate is blocked with a solution of 3% BSA. An aliquot of the substituted biphenyloxy acid/PAI-1 solution is then added to the tPA-coated plate, incubated at room temperature for 1 hour, and washed. Active PAI-1 bound to the plate is assessed by adding an aliquot of a 1:1000 dilution of the 33B8 monoclonal antibody against human PAI-1, and incubating the plate at room temperature for 1 hour (Molecular Innovations, Royal Oak, Mich.). The plate is again washed, and a solution of goat anti-mouse IgG-alkaline phosphatase conjugate is added at a 1:50,000 dilution in goat serum. The plate is incubated 30 minutes at room temperature, washed, and a solution of alkaline phosphatase substrate is added. The plate is incubated 45 minutes at room temperature, and color development is determined at OD405nm. The quantitation of active PAI-1 bound to tPA at varying concentrations of the test compound is used-to determine the IC50. Results are analyzed using a logarithmic best-fit equation. The assay sensitivity is 5 ng/ml of human PAI-1 as determined from a standard curve ranging from 0-100 ng/ml.

Data set [2] has as its target T1, recombinant human plasminogen activator inhibitor-1 (PAI-1). Put plainly: Kinetic IC50: modification of the Primary Screen for the PAI-1 Inhibition. Type of data set: biochemical. As to the method:
as §1

T1 sequence (P05121 24-402): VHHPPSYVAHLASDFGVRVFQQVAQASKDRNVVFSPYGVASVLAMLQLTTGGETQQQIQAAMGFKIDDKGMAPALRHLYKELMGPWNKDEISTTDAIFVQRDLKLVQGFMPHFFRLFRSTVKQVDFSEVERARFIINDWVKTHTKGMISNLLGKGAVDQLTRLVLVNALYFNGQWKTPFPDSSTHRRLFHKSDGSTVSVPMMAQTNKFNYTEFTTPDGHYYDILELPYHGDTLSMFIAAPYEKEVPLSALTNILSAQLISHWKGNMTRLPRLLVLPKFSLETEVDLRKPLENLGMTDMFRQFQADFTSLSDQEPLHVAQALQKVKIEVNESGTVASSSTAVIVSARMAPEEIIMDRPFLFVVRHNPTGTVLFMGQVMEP
Chain of human PAI-1 (P05121 24-402): as above

Molecule `CCCc1c(C(=O)NCc2ccc(-c3ccc(OCC(=O)O)cc3)cc2)cnn1-c1ccccc1` [Compound 2, ({4′-[({[1-phenyl-5-propyl-1H-pyrazol-4-yl]carbonyl}amino)methyl][1,1′-biphenyl]-4-yl}oxy)acetic acid] returned a melting point of 190 to 192 °C. Further, in data set [1], the inhibition at 25 µM turned out to be 2% and the inhibition at 100 µM stood at 66%.

Consider `CCCc1c(C(=O)NCc2ccc(-c3ccc(OCC(=O)O)c(Br)c3)cc2)cnn1-c1ccccc1` [Compound 3, {[3-bromo-4′-({[(1-phenyl-5-propyl-1H-pyrazol-4-yl)carbonyl]amino}methyl)[1,1′-biphenyl]-4-yl]oxy}acetic acid], for which the melting point is 204 to 206 °C. Moreover, it took 37.5 µM to reach half-maximal inhibition against human PAI-1 (IC50). Besides, in data set [1], the inhibition at 25 µM is 47% and the inhibition at 100 µM turned out to be 88%.

`CCCCc1oc2ccccc2c1C(=O)NCc1ccc(-c2ccc(OCC(=O)O)c(Br)c2)cc1` [Compound 4, {[3-bromo-4′-({[(2-butyl-1-benzofuran-3-yl)carbonyl]amino}methyl)[1,1′-biphenyl]-4-yl]oxy}acetic acid] showed a melting point of 175 to 190 °C. Further, in data set [1], the inhibition at 25 µM came out at 44% and the inhibition at 100 µM worked out at 82%.

`CCCCc1oc2ccccc2c1C(=O)N(C)Cc1ccc(-c2ccc(OCc3nnn[nH]3)c(Br)c2)cc1` [Compound 6, N-{[3′-bromo-4′-(1H-tetraazol-5-ylmethoxy)-1,1′-biphenyl-4-yl]methyl}-2-butyl-N-methyl-1-benzofuran-3-carboxamide] registered an IC50 against human PAI-1 of 10.8 µM. Besides, in data set [1], the inhibition at 25 µM is 42% and the inhibition at 100 µM worked out at 94%.

Consider `CCCCc1oc2ccccc2c1C(=O)N(C)Cc1ccc(-c2ccc(OCC(=O)O)c(Br)c2)cc1` [Compound 7, [(3-bromo-4′-{[[(2-butyl-1-benzofuran-3-yl)carbonyl](methyl)amino]methyl}-1,1′-biphenyl-4-yl)oxy]acetic acid], for which the melting point was in the range of 72 to 78 °C. For the same molecule, the IC50 against human PAI-1 was 18.7 µM. Further, in data set [1], the inhibition at 25 µM was found to be 64% and the inhibition at 100 µM amounted to 100%.

Regarding `CCCCc1oc2ccccc2c1C(=O)N(C)Cc1ccc(-c2ccc(OC(Cc3ccccc3)C(=O)O)c(Br)c2)cc1` (stereo not shown) [Compound 8, 2-[(3-bromo-4′-{[[(2-butyl-1-benzofuran-3-yl)carbonyl](methyl)amino]methyl}-1,1′-biphenyl-4-yl)oxy]-3-phenylpropanoic acid], the melting point lay within 79 to 86 °C. On human PAI-1, it took 20 µM to reach half-maximal inhibition (IC50). Also, in data set [1], the inhibition at 25 µM is 55% and the inhibition at 100 µM turned out to be 96%.

Regarding `CN(Cc1ccc(-c2ccc(OCc3nnn[nH]3)c(Br)c2)cc1)C(=O)c1cn(C)c2ccccc12` [Compound 9, N-{[3′-bromo-4′-(1H-tetraazol-5-ylmethoxy)-1,1′-biphenyl-4-yl]methyl}-N,1-dimethyl-1H-indole-3-carboxamide], the melting point is 239 °C. For the same molecule, the IC50 at human PAI-1 came out at 46.3 µM. For the same molecule, in data set [1], the inhibition at 25 µM was 41% and the inhibition at 100 µM was determined as 81%.

Turning to `CN(Cc1ccc(-c2ccc(OCc3nnn[nH]3)c(Br)c2)cc1)C(=O)c1cn(Cc2ccccc2)c2ccccc12` [Compound 10, 1-Benzyl-N-{[3′-bromo-4′-(1H-tetraazol-5-ylmethoxy)-1,1′-biphenyl-4-yl]methyl}-N-methyl-1H-indole-3-carboxamide], the IC50 against human PAI-1 is 30 µM. In data set [1], the inhibition at 25 µM is 45% and the inhibition at 100 µM was found to be 76%.

`CCCCc1oc2ccccc2c1C(=O)Nc1ccc(-c2ccc(OCC(=O)O)cc2)cc1` [Compound 13, [(4′-{[(2-butyl-1-benzofuran-3-yl)carbonyl]amino}[1,1′-biphenyl]-4-yl)oxy]acetic acid] gave a melting point of 225 to 227 °C. Moreover, in data set [1], the inhibition at 25 µM is 25% and the inhibition at 100 µM is 85%.

On to `CCCCc1oc2ccccc2c1C(=O)Nc1ccc(-c2ccc(OCc3nnn[nH]3)cc2)cc1` [Compound 14, 2-Butyl-N-[4′-(1H-tetraazol-5-ylmethoxy)[1,1′-biphenyl]-4-yl]-1-benzofuran-3-carboxamide], for which the melting point was 210 to 212 °C. In data set [1], the inhibition at 25 µM came out at 29% and the inhibition at 100 µM worked out at 62%.

`O=C(Nc1ccc(-c2cccc(OC(Cc3ccccc3)C(=O)O)c2)cc1)c1cc(-c2ccc(C(F)(F)F)cc2)oc1C(F)(F)F` (stereo not shown) [Compound 43, 3-phenyl-2-{[4′-({2-(trifluoromethyl)-5-[4-(trifluoromethyl)phenyl]-3-furoyl}amino)-1,1′-biphenyl-3-yl]oxy}propanoic acid]: in data set [2], the IC50 came out at 12 µM. In data set [1], the inhibition at 25 µM was found to be 26% and the inhibition at 100 µM is 88%.

Take `Cc1nn(Cc2ccc(C(=O)Nc3ccc(-c4cccc(OC(Cc5ccccc5)C(=O)O)c4)cc3)o2)c(C)c1Br` (stereo not shown) [Compound 44, 2-{[4′-({5-[(4-bromo-3,5-dimethyl-1H-pyrazol-1-yl)methyl]-2-furoyl}amino)-1,1′-biphenyl-3-yl]oxy}-3-phenylpropanoic acid]: the IC50 in data set [2] worked out at 11.8 µM. Also, in data set [1], the inhibition at 25 µM turned out to be 17% and the inhibition at 100 µM worked out at 52%.

Take `O=C(Nc1ccc(-c2ccc(OC(Cc3ccccc3)C(=O)O)cc2)cc1)c1ccc(Oc2ccccc2)cc1` (stereo not shown) [Compound 45, 2-({4′-[(4-phenoxybenzoyl)amino]-1,1′-biphenyl-4-yl}oxy)-3-phenylpropanoic acid]: the IC50 in data set [2] was determined as 11.5 µM. Also, in data set [1], the inhibition at 25 µM came out at 34% and the inhibition at 100 µM is 61%.

Consider `O=C(Nc1ccc(-c2ccc(OC(Cc3ccccc3)C(=O)O)cc2)cc1)c1ccc(-c2ccc(Cl)cc2)s1` (stereo not shown) [Compound 46, 2-{[4′-({[5-(4-chlorophenyl)thien-2-yl]carbonyl}amino)-1,1′-biphenyl-4-yl]oxy}-3-phenylpropanoic acid], for which the IC50 in data set [2] came out at 5.4 µM. In data set [1], the inhibition at 25 µM is 36% and the inhibition at 100 µM is 84%.

For the molecule `O=C(O)C(Cc1ccccc1)Oc1ccc(-c2ccc(NC(=O)C3(c4ccc(Cl)cc4)CCC3)cc2)cc1` (stereo not shown) [Compound 47, 2-{[4′-({[1-(4-chlorophenyl)cyclobutyl]carbonyl}amino)-1,1′-biphenyl-4-yl]oxy}-3-phenylpropanoic acid], the IC50 in data set [2] is 18.1 µM. Moreover, in data set [1], the inhibition at 25 µM came out at 14% and the inhibition at 100 µM worked out at 83%.

Consider `O=C(Nc1ccc(-c2ccc(OC(Cc3ccccc3)C(=O)O)cc2)cc1)c1cc(-c2ccccc2Cl)oc1C(F)(F)F` (stereo not shown) [Compound 48, 2-[(4′-{[5-(2-chlorophenyl)-2-(trifluoromethyl)-3-furoyl]amino}-1,1′-biphenyl-4-yl)oxy]-3-phenylpropanoic acid], for which the IC50 in data set [2] was 23.2 µM. In data set [1], the inhibition at 25 µM came to 7% and the inhibition at 100 µM turned out to be 78%.

In the case of `CCCCc1oc2ccccc2c1C(=O)Nc1ccc(-c2ccc(OC(Cc3ccccc3)C(=O)O)cc2)cc1` (stereo not shown) [Compound 49, 2-[(4′-{[(2-butyl-1-benzofuran-3-yl)carbonyl]amino}-1,1′-biphenyl-4-yl)oxy]-3-phenylpropanoic acid], the IC50 in data set [2] was determined as 8.71 µM. In data set [1], the inhibition at 25 µM is 25% and the inhibition at 100 µM was 90%.

Take `O=C(Nc1ccc(-c2ccc(OC(Cc3ccccc3)C(=O)O)cc2)cc1)c1cc(-c2ccc(C(F)(F)F)cc2)oc1C(F)(F)F` (stereo not shown) [Compound 50, 3-phenyl-2-{[4′-({2-(trifluoromethyl)-5-[4-(trifluoromethyl)phenyl]-3-furoyl}amino)-1,1′-biphenyl-4-yl]oxy}propanoic acid]: the IC50 in data set [2] came to 18.7 µM. In addition, in data set [1], the inhibition at 25 µM is 27% and the inhibition at 100 µM came to 95%.
